Experimental data taken from article PMC7845544 (Frontiers in Pharmacology, 2021).
Where “and” joins values, the source holds several entries; their conditions need not be identical. Identical values can stand only once. Like-named read-outs stand apart in the source and are kept apart here.

Tests used:
[1] = microsomes
[2] = microsomes; remark: listed apart in the source
[3] = microsomes; remark: listed apart in the source
[4] = target: T1, hFSHR (Homo sapiens, UniProt P23945); experiment: cAMP (HTRF) in CHO cells transfected with hFSHR; type: cell-based; conditions: for EC50: compounds in presence of EC20 ligand (Figure 1 legend); for EC50 / % Response, CHO-hFSHR: mean ± SEM; for % Response, CHO-hFSHR: maximal cAMP vs maximal response of protein ligand FSH
T1 construct: expressed in transfected cells
T1 sequence (P23945 18-695): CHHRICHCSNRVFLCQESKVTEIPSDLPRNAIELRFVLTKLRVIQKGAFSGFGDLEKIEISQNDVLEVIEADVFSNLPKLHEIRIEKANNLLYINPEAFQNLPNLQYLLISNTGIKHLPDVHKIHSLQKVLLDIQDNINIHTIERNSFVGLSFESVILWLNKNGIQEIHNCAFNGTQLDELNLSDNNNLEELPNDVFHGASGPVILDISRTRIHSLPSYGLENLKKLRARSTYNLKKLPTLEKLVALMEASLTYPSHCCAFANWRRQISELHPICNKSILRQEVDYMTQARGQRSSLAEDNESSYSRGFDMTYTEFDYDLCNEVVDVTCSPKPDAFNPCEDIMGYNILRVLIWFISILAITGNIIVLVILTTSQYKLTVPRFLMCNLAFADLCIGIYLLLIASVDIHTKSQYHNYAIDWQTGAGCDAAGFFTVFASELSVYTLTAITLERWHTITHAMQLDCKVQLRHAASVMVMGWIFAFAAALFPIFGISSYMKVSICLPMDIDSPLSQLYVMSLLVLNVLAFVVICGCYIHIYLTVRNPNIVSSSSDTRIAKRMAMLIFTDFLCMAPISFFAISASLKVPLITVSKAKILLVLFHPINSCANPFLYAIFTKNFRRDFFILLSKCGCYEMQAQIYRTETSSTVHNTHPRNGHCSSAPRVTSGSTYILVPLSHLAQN
Experimental: (§1) Chinese hamster ovary (CHO) cells transfected with hFSHR, hLHR or hTSHR were grown as described previously ([Kelton et al., 1992]; [Persani et al., 1993]; [Yu et al., 2014]). In brief, CHO-hFSHR and CHO-hTSHR were maintained in DMEM/F12 + 10% FBS in T150 culture flasks. The cells were cultured until they reached 70–80% confluence (three days) and were then used for assays or passaged. CHO-hLHR ([van de Lagemaat et al., 2009]; [Sriraman et al., 2014]) was cultured in MEM alpha (++) +10% FBS and G418, and passaged every three days. CHO-hFSHR or −hLHR or −hTSR cells (2,500/well) were plated in 5 µL of phenol red free DMEM/F12 + 1% FBS in 384 well solid white low volume plates (Greiner 784075) by Multidrop. […] The plates were incubated at 37°C for 1 h. After the incubation period, cAMP was measured by HTRF® (homogeneous time-resolved fluorescence) assay (CisBio, Bedford, MA). In brief, conditioned media were incubated with cryptate-labeled cAMP antibody and d2-labeled cAMP in lysis buffer for 1 h. Free cAMP produced by cells competes with cAMP-d2 for binding to the anti-cAMP cryptate. An increase in cellular cAMP leads to a decrease in fluorescence resonance energy transfer, which is detectable as a decrease in the emission at 665 nm, measured by Envision fluorescence reader (PerkinElmer, Waltham, MA). The readout was calculated fluorescence ratio (665/620 nm). Values given in percent (%) indicate the percent response at a certain concentration of agonist relative to the maximum response of the protein ligand standard.

[5] = Mouse pharmacokinetics; type: in vivo; conditions: 5 mg/kg; for Mouse PK F%: oral bioavailability
[6] = Rat pharmacokinetics; type: in vivo; conditions: for Rat PK %F: oral bioavailability
Experimental: […] Blood samples were collected at serial time points from 5 min to 24 h. The circulating concentrations of the compound in plasma samples were analyzed by HPLC. PK parameters were determined with Phoenix WinNonlin software (Pharsight Corporation, Sunnyvale, CA, United States) using a non-compartmental model.

[7] = mouse, microsomes
[8] = system: rat granulosa cells; experiment: Rat granulosa cell assay measuring secreted estradiol; type: cell-based; conditions: for % Response, estradiol, +EC20 FSH / EC50 / % Response, estradiol, No FSH: 24 h, mean ± SEM; for fold improvement of EC50 for estradiol production by low concentration of rec-hFSH: rec-hFSH 0.2 pM
Experimental: All animals were maintained and handled under IACUC approved procedures at the respective institutions providing contracted service for TocopheRx, following procedures previously approved by local (MA, United States) IACUC reviews ([Sriraman et al., 2014]; [Yu et al., 2014]). Ovarian follicular granulosa cells were isolated from rats implanted with DES pellets (1 mg/day; 7-days release) at ChemPartner (Shanghai, China). The pellets were implanted subcutaneously on 22 day old rats with trochar, employing aseptic techniques after isoflurane anesthesia. Animals were euthanized on post-op day 3, ovaries were excised, cleaned, and granulosa cells were isolated by repeated disruption of the follicle as described previously. Granulosa cells isolated from four to five rats were used to culture one 96-well plate and an equal number of cells was plated in each well. The cells were cultured overnight at 37°C in media containing 5% FBS.
After overnight culture, the media was replaced with serum free media containing 0.1% BSA and 100 nM androstenedione. […] After 24 h of treatment, supernatant was collected and estradiol concentration was determined by ELISA (DRG, Mountainside, NJ, United States). The optical densities of the estradiol ELISA were measured by Spectramax (Sunnyvale, CA, United States). The values were analyzed in Microsoft Excel and Graphpad Prism (San Diego, CA, United States).

[9] = target: CYP3A4 (Homo sapiens, UniProt P08684); experiment: CYP time dependent inhibition; type: in vitro ADME
[10] = target: T2, hTSHR (Homo sapiens, UniProt P16473); experiment: cAMP (HTRF) in CHO cells transfected with hTSHR; type: cell-based; conditions: for Ratio of EC50 TSHR/FSHR: CHO assays; for EC50: compounds in presence of EC20 ligand (Figure 1 legend); for EC50 / % Response, CHO-hTSHR: mean ± SEM; for % Response, CHO-hTSHR: maximal cAMP vs maximal response of TSH
T2 construct: expressed in transfected cells
Experimental: as §1

[11] = microsomes; remark: listed apart in the source
[12] = target: T3, hLH/CGR (Homo sapiens, UniProt P22888); experiment: cAMP (HTRF) in CHO cells transfected with hLH/CGR; type: cell-based; conditions: for EC50: compounds in presence of EC20 ligand (Figure 1 legend); for EC50 / % Response, CHO-hLH/CGR: mean ± SEM; for % Response, CHO-hLH/CGR: maximal cAMP vs maximal response of hCG
T3 construct: expressed in transfected cells
Experimental: as §1

[13] = +EC20 FSH, read-out: EC50 (M), estradiol, +EC20 FSH
[14] = No FSH, read-out: EC50 (M), estradiol, No FSH

T2 sequence (P16473 21-764): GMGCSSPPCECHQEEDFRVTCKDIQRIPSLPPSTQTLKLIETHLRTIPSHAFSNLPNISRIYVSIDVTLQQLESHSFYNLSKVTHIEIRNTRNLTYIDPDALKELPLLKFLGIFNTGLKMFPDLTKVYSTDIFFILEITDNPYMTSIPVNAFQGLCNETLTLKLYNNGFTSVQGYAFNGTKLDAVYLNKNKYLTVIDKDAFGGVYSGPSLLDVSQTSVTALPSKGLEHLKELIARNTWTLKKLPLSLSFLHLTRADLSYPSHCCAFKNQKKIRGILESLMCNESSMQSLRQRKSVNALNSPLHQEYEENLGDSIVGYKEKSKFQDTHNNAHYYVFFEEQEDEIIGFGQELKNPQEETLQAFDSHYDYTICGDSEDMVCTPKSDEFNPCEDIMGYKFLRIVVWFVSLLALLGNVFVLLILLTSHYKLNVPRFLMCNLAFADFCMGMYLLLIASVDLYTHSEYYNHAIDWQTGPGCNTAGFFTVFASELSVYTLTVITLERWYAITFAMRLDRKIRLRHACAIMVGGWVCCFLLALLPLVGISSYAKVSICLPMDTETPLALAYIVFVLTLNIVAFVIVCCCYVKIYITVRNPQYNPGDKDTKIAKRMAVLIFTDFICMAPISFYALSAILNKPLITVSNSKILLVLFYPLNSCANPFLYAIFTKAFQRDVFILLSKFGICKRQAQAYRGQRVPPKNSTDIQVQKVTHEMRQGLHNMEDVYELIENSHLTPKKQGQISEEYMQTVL
T3 sequence (P22888 27-699): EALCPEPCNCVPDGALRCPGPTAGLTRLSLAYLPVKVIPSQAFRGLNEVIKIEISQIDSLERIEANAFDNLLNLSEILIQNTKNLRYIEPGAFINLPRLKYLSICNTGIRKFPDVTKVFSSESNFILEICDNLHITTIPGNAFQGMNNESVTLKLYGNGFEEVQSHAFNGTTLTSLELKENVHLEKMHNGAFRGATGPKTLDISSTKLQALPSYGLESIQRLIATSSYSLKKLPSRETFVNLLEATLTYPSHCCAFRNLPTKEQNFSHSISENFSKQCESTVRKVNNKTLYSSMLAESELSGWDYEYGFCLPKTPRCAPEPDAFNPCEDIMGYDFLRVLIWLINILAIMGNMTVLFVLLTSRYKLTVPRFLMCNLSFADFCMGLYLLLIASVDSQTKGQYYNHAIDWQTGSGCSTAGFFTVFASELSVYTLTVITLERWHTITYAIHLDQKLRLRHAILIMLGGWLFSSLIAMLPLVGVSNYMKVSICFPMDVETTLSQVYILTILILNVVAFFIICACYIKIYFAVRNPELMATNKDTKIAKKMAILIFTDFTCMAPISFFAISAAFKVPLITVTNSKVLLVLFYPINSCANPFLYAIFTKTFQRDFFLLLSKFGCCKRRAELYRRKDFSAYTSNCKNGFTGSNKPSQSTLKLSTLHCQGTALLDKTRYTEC
CYP3A4, sequence (P08684 whole entry): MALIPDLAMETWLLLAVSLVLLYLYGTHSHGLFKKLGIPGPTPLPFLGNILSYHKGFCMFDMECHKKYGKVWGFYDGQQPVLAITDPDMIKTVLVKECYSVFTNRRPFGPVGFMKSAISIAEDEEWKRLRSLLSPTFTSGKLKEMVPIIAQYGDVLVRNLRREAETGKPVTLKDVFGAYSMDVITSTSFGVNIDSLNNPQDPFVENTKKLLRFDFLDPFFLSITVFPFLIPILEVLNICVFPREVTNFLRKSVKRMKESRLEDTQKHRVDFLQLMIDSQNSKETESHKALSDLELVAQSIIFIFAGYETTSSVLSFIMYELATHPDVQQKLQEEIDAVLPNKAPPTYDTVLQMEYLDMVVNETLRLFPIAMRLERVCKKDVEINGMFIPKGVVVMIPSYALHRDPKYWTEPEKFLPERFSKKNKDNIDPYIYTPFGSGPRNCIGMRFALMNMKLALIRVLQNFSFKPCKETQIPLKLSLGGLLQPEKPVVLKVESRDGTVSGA

| Structure (SMILES) | Clint, human [1] | Clint, rat [2] | Clint, dog [3] | EC50 [4] | % Response, CHO-hFSHR [4] | Mouse PK AUC [5] | Mouse PK Cmax [5] | Mouse PK T1/2 [5] | Mouse PK F% [5] | Clint, mice [7] | % Response, estradiol, +EC20 FSH ([8]; +EC20 FSH) | EC50 [8, 13] | % Response, estradiol, No FSH ([8]; No FSH) | EC50 [8, 14] | fold improvement of EC50 for estradiol production by low concentration of rec-hFSH [8] | CYP TDI (3A4) [9] | Ratio of EC50 TSHR/FSHR [10] | EC50 [10] | % Response, CHO-hTSHR [10] | Clint, monkey [11] | further results |
| --- | --- | --- | --- | --- | --- | --- | --- | --- | --- | --- | --- | --- | --- | --- | --- | --- | --- | --- | --- | --- | --- |
| COc1cc2c(cc1-c1cnn(CCO)c1)-c1c(c(C(=O)N(C)C(C)(C)C)nn1-c1cc(Cl)cc(Cl)c1)CO2 [TOP5300] | 37 µl/min/mg protein | 11 µl/min/mg protein | 37 µl/min/mg protein | 9.72 nM | 98.4 ± 0.31% | 5,533 ng*h/ml | 1,133 ng/ml | 2.5 h | 22% | 19 µl/min/mg protein | 125 ± 12% | 1.75e-07 M | 65 ± 6% | 8.68e-07 M | 2 fold | Negative | 52 | 505 nM | 84.97 ± 0.85% | 165 µl/min/mg protein | Rat PK AUC ([6]; 10 mg/kg): 2,655 ng*h/ml; Rat PK Cmax ([6]; 10 mg/kg): 237 ng/mL; Rat PK T1/2 ([6]; 10 mg/kg): 5.1 h; Rat PK %F ([6]; 10 mg/kg): 20%; EC50 [12]: 56.7 nM; % Response, CHO-hLH/CGR [12]: 95.68 ± 0.37% |
| COc1cc(C(N)=O)cc(-c2cc3c(cc2OC)OCc2c(C(=O)N(C)C(C)(C)C)nn(-c4cc(Cl)cc(Cl)c4)c2-3)n1 [TOP5668] | 20 µl/min/mg protein | 7 µl/min/mg protein | 44 µl/min/mg protein | 2.2 nM | 100.75 ± 0.51% | 2,494 ng*h/ml | 312 ng/mL | 3.57 h | 26% | 10 µl/min/mg protein | 117 ± 8% | 7.33e-08 M | 93% | 1.82e-07 M | 2 fold | Negative | 77 | 170 nM | 92.28 ± 0.88% | 117 µl/min/mg protein | fold more potent than TOP5300 in hFSHR-AA activity ([4]; CHO-hFSHR): 3-4 fold; fold lower exposure than TOP5300 ([6]; mature rat pharmacokinetic models): 3-4 fold; Rat PK AUC ([6]; 5 mg/kg): 1,530 ng*h/ml; Rat PK Cmax ([6]; 5 mg/kg): 132 ng/mL; Rat PK T1/2 ([6]; 5 mg/kg): 2.4 h; Rat PK %F ([6]; 5 mg/kg): 5% and 5.4%; fold more potent than TOP5300, rat granulosa cells ([8]; estradiol production): 5 fold; Ratio of EC50 LHR/FSHR ([12]; CHO assays): 80; EC50 [12]: 176 nM; % Response, CHO-hLH/CGR [12]: 96.64 ± 0.61% |
